# Columns and labels:
# RIOK1 = molecular target: T1, RIOK1 (Homo sapiens, UniProt Q9BRS2); assay: KINOMEscan panel screen; type: binding; conditions: read-out: Percent Control(%)
# T1 construct: purchased DiscoveRx KINOMEscan (Ambit Biosciences)
# FLT3(K663Q) = molecular target: T2, FLT3(K663Q) (Homo sapiens, UniProt P36888, K663Q); assay: KINOMEscan panel screen; type: binding; conditions: read-out: Percent Control(%)
# T2 construct: purchased DiscoveRx KINOMEscan (Ambit Biosciences)
# WEE2 = molecular target: T3, WEE2 (Homo sapiens, UniProt P0C1S8); assay: KINOMEscan panel screen; type: binding; conditions: read-out: Percent Control(%)
# T3 construct: purchased DiscoveRx KINOMEscan (Ambit Biosciences)
# PAK1 = PAK1 (Homo sapiens, UniProt Q13153); assay: KINOMEscan panel screen; type: binding; conditions: read-out: Percent Control(%)
# EGFR(S752-I759del) = molecular target: T4, EGFR(S752-I759del) (Homo sapiens, UniProt P00533, DEL752-759); assay: KINOMEscan panel screen; type: binding; conditions: read-out: Percent Control(%)
# T4 construct: purchased DiscoveRx KINOMEscan (Ambit Biosciences)
# MAK = molecular target: T5, MAK (Homo sapiens, UniProt P20794); assay: KINOMEscan panel screen; type: binding; conditions: read-out: Percent Control(%)
# T5 construct: purchased DiscoveRx KINOMEscan (Ambit Biosciences)
# MAPKAPK5 = molecular target: T6, MAPKAPK5 (Homo sapiens, UniProt Q8IW41); assay: KINOMEscan panel screen; type: binding; conditions: read-out: Percent Control(%)
# T6 construct: purchased DiscoveRx KINOMEscan (Ambit Biosciences)
# PDPK1 = molecular target: T7, PDPK1 (Homo sapiens, UniProt O15530); assay: KINOMEscan panel screen; type: binding; conditions: read-out: Percent Control(%)
# T7 construct: purchased DiscoveRx KINOMEscan (Ambit Biosciences)
# IKK-epsilon = molecular target: T8, IKK-epsilon (Homo sapiens, UniProt Q14164); assay: KINOMEscan panel screen; type: binding; conditions: read-out: Percent Control(%)
# T8 construct: purchased DiscoveRx KINOMEscan (Ambit Biosciences)
# PAK2 = molecular target: T9, PAK2 (Homo sapiens, UniProt Q13177); assay: KINOMEscan panel screen; type: binding; conditions: read-out: Percent Control(%)
# T9 construct: purchased DiscoveRx KINOMEscan (Ambit Biosciences)
# VRK2 = molecular target: T10, VRK2 (Homo sapiens, UniProt Q86Y07); assay: KINOMEscan panel screen; type: binding; conditions: read-out: Percent Control(%)
# T10 construct: purchased DiscoveRx KINOMEscan (Ambit Biosciences)
# ROCK1 = ROCK1 (Homo sapiens, UniProt Q13464); assay: KINOMEscan kinase binding assay (Kd)
# ERBB2 = ERBB2 (Homo sapiens, UniProt P04626); assay: KINOMEscan panel screen; type: binding; conditions: read-out: Percent Control(%)
# MET = molecular target: T11, MET (Homo sapiens, UniProt P08581); assay: KINOMEscan kinase binding assay (Kd)
# T11 construct: purchased DiscoveRx KINOMEscan (Ambit Biosciences)
# DYRK2 = molecular target: T12, DYRK2 (Homo sapiens, UniProt Q92630); assay: KINOMEscan panel screen; type: binding; conditions: read-out: Percent Control(%)
# T12 construct: purchased DiscoveRx KINOMEscan (Ambit Biosciences)
# EPHA3 = molecular target: T13, EPHA3 (Homo sapiens, UniProt P29320); assay: KINOMEscan panel screen; type: binding; conditions: read-out: Percent Control(%)
# T13 construct: purchased DiscoveRx KINOMEscan (Ambit Biosciences)
# LKB1 = molecular target: T14, LKB1 (Homo sapiens, UniProt Q15831); assay: KINOMEscan panel screen; type: binding; conditions: read-out: Percent Control(%)
# T14 construct: purchased DiscoveRx KINOMEscan (Ambit Biosciences)
# EPHA5 = molecular target: T15, EPHA5 (Homo sapiens, UniProt P54756); assay: KINOMEscan panel screen; type: binding; conditions: read-out: Percent Control(%)
# T15 construct: purchased DiscoveRx KINOMEscan (Ambit Biosciences)
# MKK7 = molecular target: T16, MKK7 (Homo sapiens, UniProt O14733); assay: KINOMEscan panel screen; type: binding; conditions: read-out: Percent Control(%)
# T16 construct: purchased DiscoveRx KINOMEscan (Ambit Biosciences)
# HIPK2 = molecular target: T17, HIPK2 (Homo sapiens, UniProt Q9H2X6); assay: KINOMEscan panel screen; type: binding; conditions: read-out: Percent Control(%)
# T17 construct: purchased DiscoveRx KINOMEscan (Ambit Biosciences)
# EIF2AK1 = molecular target: T18, EIF2AK1 (Homo sapiens, UniProt Q9BQI3); assay: KINOMEscan panel screen; type: binding; conditions: read-out: Percent Control(%)
# T18 construct: purchased DiscoveRx KINOMEscan (Ambit Biosciences)
# S6K1 = molecular target: T19, S6K1 (Homo sapiens, UniProt P23443); assay: KINOMEscan panel screen; type: binding; conditions: read-out: Percent Control(%)
# T19 construct: purchased DiscoveRx KINOMEscan (Ambit Biosciences)
# NEK5 = molecular target: T20, NEK5 (Homo sapiens, UniProt Q6P3R8); assay: KINOMEscan panel screen; type: binding; conditions: read-out: Percent Control(%)
# T20 construct: purchased DiscoveRx KINOMEscan (Ambit Biosciences)
# C32 = assay: MTT cell viability assay; conditions: Homo sapiens, C32, 72 h
# HepG2 = assay: MTT cell viability assay; conditions: Homo sapiens, HepG2, 72 h
# NDR2 = molecular target: T21, NDR2 (Homo sapiens, UniProt Q9Y2H1); assay: KINOMEscan panel screen; type: binding; conditions: read-out: Percent Control(%)
# T21 construct: purchased DiscoveRx KINOMEscan (Ambit Biosciences)
# NEK9 = molecular target: T22, NEK9 (Homo sapiens, UniProt Q8TD19); assay: KINOMEscan panel screen; type: binding; conditions: read-out: Percent Control(%)
# T22 construct: purchased DiscoveRx KINOMEscan (Ambit Biosciences)
# CSNK1G1 = molecular target: T23, CSNK1G1 (Homo sapiens, UniProt Q9HCP0); assay: KINOMEscan panel screen; type: binding; conditions: read-out: Percent Control(%)
# T23 construct: purchased DiscoveRx KINOMEscan (Ambit Biosciences)
# TRKA = molecular target: T24, TRKA (Homo sapiens, UniProt P04629); assay: KINOMEscan panel screen; type: binding; conditions: read-out: Percent Control(%)
# T24 construct: purchased DiscoveRx KINOMEscan (Ambit Biosciences)
# PIK3CA = molecular target: T25, PIK3CA (Homo sapiens, UniProt P42336); assay: KINOMEscan panel screen; type: binding; conditions: read-out: Percent Control(%)
# T25 construct: purchased DiscoveRx KINOMEscan (Ambit Biosciences)
# [1] = molecular target: T26, ABL1(Q252H)-nonphosphorylated (Homo sapiens, UniProt P00519, Q252H); assay: KINOMEscan panel screen; type: binding; conditions: read-out: Percent Control(%)
# T26 construct: purchased DiscoveRx KINOMEscan (Ambit Biosciences)
# PRKCD = molecular target: T27, PRKCD (Homo sapiens, UniProt Q05655); assay: KINOMEscan panel screen; type: binding; conditions: read-out: Percent Control(%)
# T27 construct: purchased DiscoveRx KINOMEscan (Ambit Biosciences)
# p38-gamma = molecular target: T28, p38-gamma (Homo sapiens, UniProt P53778); assay: KINOMEscan panel screen; type: binding; conditions: read-out: Percent Control(%)
# T28 construct: purchased DiscoveRx KINOMEscan (Ambit Biosciences)
# CLK2 = molecular target: T29, CLK2 (Homo sapiens, UniProt P49760); assay: KINOMEscan panel screen; type: binding; conditions: read-out: Percent Control(%)
# T29 construct: purchased DiscoveRx KINOMEscan (Ambit Biosciences)
# DCAMKL3 = molecular target: T30, DCAMKL3 (Homo sapiens, UniProt Q9C098); assay: KINOMEscan panel screen; type: binding; conditions: read-out: Percent Control(%)
# T30 construct: purchased DiscoveRx KINOMEscan (Ambit Biosciences)
# THP-1 = assay: MTT cell viability assay; conditions: Homo sapiens, THP-1, 72 h
# TIE1 = molecular target: T31, TIE1 (Homo sapiens, UniProt P35590); assay: KINOMEscan panel screen; type: binding; conditions: read-out: Percent Control(%)
# T31 construct: purchased DiscoveRx KINOMEscan (Ambit Biosciences)
# [2] = molecular target: T32, RPS6KA5(Kin.Dom.2-C-terminal) (Homo sapiens, UniProt O75582); assay: KINOMEscan panel screen; type: binding; conditions: read-out: Percent Control(%)
# T32 construct: RPS6KA5(Kin.Dom.2-C-terminal); purchased DiscoveRx KINOMEscan (Ambit Biosciences)
# [3] = molecular target: T33, JAK2(JH1domain-catalytic) (Homo sapiens, UniProt O60674); assay: KINOMEscan panel screen; type: binding; conditions: read-out: Percent Control(%)
# T33 construct: JAK2(JH1domain-catalytic); purchased DiscoveRx KINOMEscan (Ambit Biosciences)
# BUB1 = molecular target: T34, BUB1 (Homo sapiens, UniProt O43683); assay: KINOMEscan panel screen; type: binding; conditions: read-out: Percent Control(%)
# T34 construct: purchased DiscoveRx KINOMEscan (Ambit Biosciences)
# CDK11 = molecular target: T35, CDK11 (Homo sapiens, UniProt Q9BWU1); assay: KINOMEscan panel screen; type: binding; conditions: read-out: Percent Control(%)
# T35 construct: purchased DiscoveRx KINOMEscan (Ambit Biosciences)
# [4] = molecular target: T36, ABL1(H396P)-nonphosphorylated (Homo sapiens, UniProt P00519, H396P); assay: KINOMEscan panel screen; type: binding; conditions: read-out: Percent Control(%)
# T36 construct: purchased DiscoveRx KINOMEscan (Ambit Biosciences)
# T25 sequence (P42336 whole entry): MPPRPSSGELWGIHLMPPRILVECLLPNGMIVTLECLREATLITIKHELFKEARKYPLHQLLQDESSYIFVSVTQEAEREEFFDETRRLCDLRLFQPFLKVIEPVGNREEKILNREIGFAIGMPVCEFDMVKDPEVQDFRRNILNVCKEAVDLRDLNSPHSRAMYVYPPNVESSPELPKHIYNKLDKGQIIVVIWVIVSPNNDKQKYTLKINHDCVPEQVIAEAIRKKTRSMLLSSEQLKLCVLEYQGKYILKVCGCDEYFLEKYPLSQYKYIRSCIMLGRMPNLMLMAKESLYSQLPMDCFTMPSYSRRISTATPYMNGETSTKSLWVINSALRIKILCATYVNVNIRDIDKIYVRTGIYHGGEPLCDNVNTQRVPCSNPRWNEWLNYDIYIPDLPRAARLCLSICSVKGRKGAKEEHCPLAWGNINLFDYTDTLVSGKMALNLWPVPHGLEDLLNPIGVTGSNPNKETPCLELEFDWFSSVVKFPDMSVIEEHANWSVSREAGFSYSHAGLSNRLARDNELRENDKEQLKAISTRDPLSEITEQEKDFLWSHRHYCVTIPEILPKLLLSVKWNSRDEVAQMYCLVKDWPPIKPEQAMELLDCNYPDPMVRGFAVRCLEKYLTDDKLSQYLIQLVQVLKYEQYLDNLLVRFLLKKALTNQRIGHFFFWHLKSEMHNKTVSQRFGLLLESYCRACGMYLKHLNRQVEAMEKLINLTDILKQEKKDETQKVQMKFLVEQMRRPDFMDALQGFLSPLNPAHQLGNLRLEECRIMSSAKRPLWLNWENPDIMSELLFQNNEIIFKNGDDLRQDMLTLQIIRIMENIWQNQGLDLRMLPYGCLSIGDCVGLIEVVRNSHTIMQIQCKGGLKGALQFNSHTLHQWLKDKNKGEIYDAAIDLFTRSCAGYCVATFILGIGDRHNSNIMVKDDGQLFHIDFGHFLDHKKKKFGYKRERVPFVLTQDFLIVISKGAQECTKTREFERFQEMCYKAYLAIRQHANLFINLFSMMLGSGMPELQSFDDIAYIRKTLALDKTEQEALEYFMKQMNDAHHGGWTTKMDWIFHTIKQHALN
# T21 sequence (Q9Y2H1 whole entry): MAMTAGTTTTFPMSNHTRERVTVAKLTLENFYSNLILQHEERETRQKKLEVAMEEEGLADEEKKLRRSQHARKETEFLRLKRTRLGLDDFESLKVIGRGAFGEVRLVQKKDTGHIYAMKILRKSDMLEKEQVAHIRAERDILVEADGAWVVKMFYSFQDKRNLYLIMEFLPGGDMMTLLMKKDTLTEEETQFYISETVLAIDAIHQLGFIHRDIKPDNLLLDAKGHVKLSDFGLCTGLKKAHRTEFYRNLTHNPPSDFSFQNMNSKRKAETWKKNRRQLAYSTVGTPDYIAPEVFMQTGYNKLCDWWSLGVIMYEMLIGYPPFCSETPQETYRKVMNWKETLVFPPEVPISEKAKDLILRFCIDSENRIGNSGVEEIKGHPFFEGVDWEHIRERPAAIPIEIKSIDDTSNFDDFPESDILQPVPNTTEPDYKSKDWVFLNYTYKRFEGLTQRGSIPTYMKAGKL
# T16 sequence (O14733 whole entry): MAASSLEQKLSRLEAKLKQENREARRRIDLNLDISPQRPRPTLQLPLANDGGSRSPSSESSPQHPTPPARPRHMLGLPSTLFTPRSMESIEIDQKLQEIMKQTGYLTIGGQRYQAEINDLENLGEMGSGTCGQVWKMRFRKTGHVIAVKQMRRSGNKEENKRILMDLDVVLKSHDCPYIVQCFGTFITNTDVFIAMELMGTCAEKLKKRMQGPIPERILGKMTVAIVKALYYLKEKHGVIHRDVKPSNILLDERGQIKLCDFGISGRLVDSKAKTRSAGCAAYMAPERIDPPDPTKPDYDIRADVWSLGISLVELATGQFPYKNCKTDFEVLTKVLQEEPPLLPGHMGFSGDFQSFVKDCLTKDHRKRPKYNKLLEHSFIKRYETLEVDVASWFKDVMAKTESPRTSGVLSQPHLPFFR
# T28 sequence (P53778 whole entry): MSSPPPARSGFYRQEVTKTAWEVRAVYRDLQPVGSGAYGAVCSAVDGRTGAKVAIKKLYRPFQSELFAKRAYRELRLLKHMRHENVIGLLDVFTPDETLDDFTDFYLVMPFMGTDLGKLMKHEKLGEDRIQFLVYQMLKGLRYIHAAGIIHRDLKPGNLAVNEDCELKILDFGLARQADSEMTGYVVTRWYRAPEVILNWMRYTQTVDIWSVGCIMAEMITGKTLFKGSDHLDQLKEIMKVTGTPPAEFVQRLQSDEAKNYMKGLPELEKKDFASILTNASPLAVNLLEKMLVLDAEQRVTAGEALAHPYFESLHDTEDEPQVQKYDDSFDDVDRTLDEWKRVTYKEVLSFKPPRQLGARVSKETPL
# T1 sequence (Q9BRS2 whole entry): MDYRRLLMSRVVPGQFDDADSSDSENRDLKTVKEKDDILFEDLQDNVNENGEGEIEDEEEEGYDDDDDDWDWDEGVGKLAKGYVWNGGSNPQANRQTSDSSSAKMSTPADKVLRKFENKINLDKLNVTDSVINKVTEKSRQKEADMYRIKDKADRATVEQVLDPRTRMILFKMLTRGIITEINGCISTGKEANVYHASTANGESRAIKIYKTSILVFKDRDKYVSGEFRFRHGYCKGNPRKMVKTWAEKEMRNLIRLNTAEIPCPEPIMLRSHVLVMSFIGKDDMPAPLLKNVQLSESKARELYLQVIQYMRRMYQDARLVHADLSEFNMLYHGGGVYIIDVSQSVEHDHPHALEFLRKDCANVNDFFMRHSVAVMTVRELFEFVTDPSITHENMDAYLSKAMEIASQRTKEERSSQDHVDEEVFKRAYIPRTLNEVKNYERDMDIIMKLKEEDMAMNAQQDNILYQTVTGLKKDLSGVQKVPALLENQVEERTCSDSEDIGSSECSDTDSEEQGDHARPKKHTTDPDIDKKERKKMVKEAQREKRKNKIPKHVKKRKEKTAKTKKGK
# T18 sequence (Q9BQI3 whole entry): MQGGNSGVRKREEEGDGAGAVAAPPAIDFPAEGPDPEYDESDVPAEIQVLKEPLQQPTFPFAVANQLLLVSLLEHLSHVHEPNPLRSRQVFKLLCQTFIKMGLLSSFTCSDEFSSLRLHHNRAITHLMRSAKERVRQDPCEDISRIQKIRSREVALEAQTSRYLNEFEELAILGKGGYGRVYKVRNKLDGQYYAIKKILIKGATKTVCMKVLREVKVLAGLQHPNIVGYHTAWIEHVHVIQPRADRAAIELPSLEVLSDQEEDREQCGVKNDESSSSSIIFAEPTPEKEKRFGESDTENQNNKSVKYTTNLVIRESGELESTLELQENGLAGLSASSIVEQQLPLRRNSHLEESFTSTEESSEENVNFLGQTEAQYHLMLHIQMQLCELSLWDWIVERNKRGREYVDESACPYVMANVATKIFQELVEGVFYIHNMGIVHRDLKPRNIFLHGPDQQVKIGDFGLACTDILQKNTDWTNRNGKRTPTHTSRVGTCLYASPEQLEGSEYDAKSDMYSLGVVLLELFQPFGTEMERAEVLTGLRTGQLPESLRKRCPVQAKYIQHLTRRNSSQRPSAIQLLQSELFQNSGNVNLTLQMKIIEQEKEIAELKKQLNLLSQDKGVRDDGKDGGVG
# T19 sequence (P23443 whole entry): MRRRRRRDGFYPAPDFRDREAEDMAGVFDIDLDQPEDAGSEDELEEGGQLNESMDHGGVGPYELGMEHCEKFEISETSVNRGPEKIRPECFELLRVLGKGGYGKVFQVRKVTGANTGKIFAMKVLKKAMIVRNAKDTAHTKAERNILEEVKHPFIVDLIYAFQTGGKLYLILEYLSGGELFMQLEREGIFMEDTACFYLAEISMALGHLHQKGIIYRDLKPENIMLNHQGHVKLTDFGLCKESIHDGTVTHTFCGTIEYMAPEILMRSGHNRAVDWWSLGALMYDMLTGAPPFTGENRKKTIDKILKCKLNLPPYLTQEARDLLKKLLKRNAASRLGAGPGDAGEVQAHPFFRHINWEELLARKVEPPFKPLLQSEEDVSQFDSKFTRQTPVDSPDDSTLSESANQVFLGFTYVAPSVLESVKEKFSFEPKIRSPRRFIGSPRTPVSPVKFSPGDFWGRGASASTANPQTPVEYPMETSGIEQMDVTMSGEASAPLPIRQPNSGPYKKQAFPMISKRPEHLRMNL
# T10 sequence (Q86Y07 whole entry): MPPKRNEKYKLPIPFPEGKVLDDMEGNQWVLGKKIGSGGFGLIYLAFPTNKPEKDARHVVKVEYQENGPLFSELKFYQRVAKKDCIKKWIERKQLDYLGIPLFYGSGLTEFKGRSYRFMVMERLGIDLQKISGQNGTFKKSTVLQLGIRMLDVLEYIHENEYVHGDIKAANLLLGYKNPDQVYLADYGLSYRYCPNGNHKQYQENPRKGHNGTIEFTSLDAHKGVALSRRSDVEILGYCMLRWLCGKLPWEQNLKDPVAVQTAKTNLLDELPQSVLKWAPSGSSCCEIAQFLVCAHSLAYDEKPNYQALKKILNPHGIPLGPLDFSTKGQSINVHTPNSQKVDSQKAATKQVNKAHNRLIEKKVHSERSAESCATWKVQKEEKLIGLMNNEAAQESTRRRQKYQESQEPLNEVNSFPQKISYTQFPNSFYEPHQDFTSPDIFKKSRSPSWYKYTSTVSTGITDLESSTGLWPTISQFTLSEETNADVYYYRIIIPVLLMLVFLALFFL
# T33 sequence (O60674 849-1124 limits assumed): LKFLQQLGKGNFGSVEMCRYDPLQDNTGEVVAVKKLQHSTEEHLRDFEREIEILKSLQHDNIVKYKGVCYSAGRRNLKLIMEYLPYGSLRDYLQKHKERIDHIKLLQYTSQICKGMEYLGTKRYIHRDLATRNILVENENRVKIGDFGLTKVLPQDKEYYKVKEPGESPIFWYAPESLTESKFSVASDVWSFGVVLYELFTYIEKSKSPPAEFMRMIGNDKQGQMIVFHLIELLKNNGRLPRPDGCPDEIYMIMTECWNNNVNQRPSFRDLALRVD
compound,measurement,setting,value
"CC(C)(C)c1cc(NC(=O)Nc2ccc(Oc3ncnc4[nH]ncc34)c(F)c2)no1 [SKLB-677, 1-(4-(1H-pyrazolo[3,4-d]pyrimidin-4-yloxy)-3-fluorophenyl)-3-(5-tert-butylisoxazol-3-yl)urea]",remaining binding at 10 µM,RIOK1,89%
same,remaining binding at 10 µM,FLT3(K663Q),1.8%
same,remaining binding at 10 µM,WEE2,78%
same,remaining binding at 10 µM,PAK1,68%
same,remaining binding at 10 µM,EGFR(S752-I759del),38%
same,remaining binding at 10 µM,MAK,21%
same,remaining binding at 10 µM,MAPKAPK5,97%
same,remaining binding at 10 µM,PDPK1,100%
same,remaining binding at 10 µM,IKK-epsilon,55%
same,remaining binding at 10 µM,PAK2,79%
same,remaining binding at 10 µM,VRK2,100%
same,Kd,ROCK1,> 10 µM
same,remaining binding at 10 µM,ERBB2,100%
same,Kd,MET,0.22 µM
same,remaining binding at 10 µM,DYRK2,34%
same,remaining binding at 10 µM,EPHA3,24%
same,remaining binding at 10 µM,LKB1,96%
same,remaining binding at 10 µM,EPHA5,0.7%
same,remaining binding at 10 µM,MKK7,77%
same,remaining binding at 10 µM,HIPK2,4.4%
same,remaining binding at 10 µM,EIF2AK1,96%
same,remaining binding at 10 µM,S6K1,54%
same,remaining binding at 10 µM,NEK5,9.8%
same,IC50,C32,> 10 µM
same,IC50,HepG2,6.7 µM
same,remaining binding at 10 µM,NDR2,56%
same,remaining binding at 10 µM,NEK9,54%
same,remaining binding at 10 µM,CSNK1G1,86%
same,remaining binding at 10 µM,TRKA,7.8%
same,remaining binding at 10 µM,PIK3CA,100%
same,remaining binding at 10 µM,[1],5.2%
same,remaining binding at 10 µM,PRKCD,61%
same,remaining binding at 10 µM,p38-gamma,3.7%
same,remaining binding at 10 µM,CLK2,6.4%
same,remaining binding at 10 µM,DCAMKL3,81%
same,IC50,THP-1,> 10 µM
same,remaining binding at 10 µM,TIE1,8.7%
same,remaining binding at 10 µM,[2],100%
same,remaining binding at 10 µM,[3],31%
same,remaining binding at 10 µM,BUB1,66%
same,remaining binding at 10 µM,CDK11,0.1%
same,remaining binding at 10 µM,[4],5.8%

# — PMC4620497 (Scientific Reports, 2015)
